One assay concerns the target F508del-CFTR (Homo sapiens, UniProt P13569, DEL508-508). Kind of assay: HS-YFP kinetic fluorescence (iodide quenching rate) assay in CFBE41o− cells. Format: cell-based. Details: expressed in transfected cells; host or cells: CFBE41o- cells with expression of F508del-CFTR and HS-YFP (generated as in Sondo et al. 2011). The conditions noted are these: 50-500 nM, 1 and 10 μM, with and without VX-809 1 μM, FIG. 4. How it is done:
CFBE41o- cells, with expression of F508del-CFTR and halogen-sensitive fluorescent protein, were generated as previously described (Sondo E, et al. Am J Physiol. 2011, 301, […]-[…]). For the test, the cells were seeded in 96-well microplates using a culture medium consisting of DMEM and Ham's F12 (1:1) supplemented with 10% foetal bovine serum. After 24 hours from seeding, the cells were treated for another 24 hours with the test compounds dissolved in the culture medium at the desired concentrations. As a negative control, the solvent of the compounds (dimethyl sulfoxide, DMSO) dissolved in the medium with the same dilution ratio (final percentage of DMSO:0.1-0.2%) was used. As a positive control, the corrector VX-809 (Selleck Chemicals, […]) was used at a concentration of 1 μM. After treatment, the medium with the compounds was removed and the cells were stimulated with forskolin (Sigma-Aldrich, F6886) 20 μM plus genistein (Sigma-Aldrich, G6649) 50 μM (in 60 μl of PBS saline) to maximally activate the CFTR channels present in the membrane. In a microplate reader (FLUOstar-Omega, BMG) the fluorescence of the cells in each well was read for 14 seconds, with an injection of 165 μl of a iodide-enriched saline (modified PBS where NaCl, 137 mM, has been replaced with the same concentration of NaI). The iodide transport activity in each well was evaluated by subtraction of the background fluorescence (measured in a well without cells), subsequent normalization with respect to the initial fluorescence and finally by interpolation of the fluorescence quenching phase with an exponential function that allows the derivation of the maximum slope (quenching rate, QR). The activity of the synthesized compounds was initially evaluated on the CFBE41o- cell line with expression of the mutated F508del-CFTR protein described above (Sondo E, et al. Am J Physiol. 2011, 301, […]-[…]). For this purpose, a functional assay based on the fluorescent YFP protein sensitive to halides, HS-YFP, was used (Galietta L J, et al. J Biol Chem. 2001, 276, 19723-19728). The fluorescence of the HS-YFP protein is turned off by iodide. Therefore, if exposed to a solution containing iodide, cells with HS-YFP expression show a quenching speed of the fluorescence which depends on the presence and activity of anionic channels. Under control conditions, the mutated CFTR protein presents a serious defect of stability and maturation, so it remains trapped in the endoplasmic reticulum not reaching the cell surface in enough quantity. In the HS-YFP-based assay, this defect results in a low anion transport capacity and therefore in a low quenching rate (QR). Treatment for a prolonged time (e.g. 24 hours) with a corrector determines an improvement in protein maturation with an increase in the number of CFTR channels present in the membrane and therefore an increase in the flux of iodide and QR. In a first phase, the authors screened about 200 heterocyclic molecules with various nitrogenated tricyclic scaffolds. Conditions previously described have been used for screening (Sondo E, et al. Am J Physiol. 2011, 301, […]-[…]) and reported herein in the Materials and Methods section. A threshold equal to the average value plus three times the standard deviation of the QR of wells without compounds (only DMSO in the culture medium) was used as a criterion for the selection of active compounds.
Sequence of F508del-CFTR (P13569 with tags, fused parts or gaps DEL508-508): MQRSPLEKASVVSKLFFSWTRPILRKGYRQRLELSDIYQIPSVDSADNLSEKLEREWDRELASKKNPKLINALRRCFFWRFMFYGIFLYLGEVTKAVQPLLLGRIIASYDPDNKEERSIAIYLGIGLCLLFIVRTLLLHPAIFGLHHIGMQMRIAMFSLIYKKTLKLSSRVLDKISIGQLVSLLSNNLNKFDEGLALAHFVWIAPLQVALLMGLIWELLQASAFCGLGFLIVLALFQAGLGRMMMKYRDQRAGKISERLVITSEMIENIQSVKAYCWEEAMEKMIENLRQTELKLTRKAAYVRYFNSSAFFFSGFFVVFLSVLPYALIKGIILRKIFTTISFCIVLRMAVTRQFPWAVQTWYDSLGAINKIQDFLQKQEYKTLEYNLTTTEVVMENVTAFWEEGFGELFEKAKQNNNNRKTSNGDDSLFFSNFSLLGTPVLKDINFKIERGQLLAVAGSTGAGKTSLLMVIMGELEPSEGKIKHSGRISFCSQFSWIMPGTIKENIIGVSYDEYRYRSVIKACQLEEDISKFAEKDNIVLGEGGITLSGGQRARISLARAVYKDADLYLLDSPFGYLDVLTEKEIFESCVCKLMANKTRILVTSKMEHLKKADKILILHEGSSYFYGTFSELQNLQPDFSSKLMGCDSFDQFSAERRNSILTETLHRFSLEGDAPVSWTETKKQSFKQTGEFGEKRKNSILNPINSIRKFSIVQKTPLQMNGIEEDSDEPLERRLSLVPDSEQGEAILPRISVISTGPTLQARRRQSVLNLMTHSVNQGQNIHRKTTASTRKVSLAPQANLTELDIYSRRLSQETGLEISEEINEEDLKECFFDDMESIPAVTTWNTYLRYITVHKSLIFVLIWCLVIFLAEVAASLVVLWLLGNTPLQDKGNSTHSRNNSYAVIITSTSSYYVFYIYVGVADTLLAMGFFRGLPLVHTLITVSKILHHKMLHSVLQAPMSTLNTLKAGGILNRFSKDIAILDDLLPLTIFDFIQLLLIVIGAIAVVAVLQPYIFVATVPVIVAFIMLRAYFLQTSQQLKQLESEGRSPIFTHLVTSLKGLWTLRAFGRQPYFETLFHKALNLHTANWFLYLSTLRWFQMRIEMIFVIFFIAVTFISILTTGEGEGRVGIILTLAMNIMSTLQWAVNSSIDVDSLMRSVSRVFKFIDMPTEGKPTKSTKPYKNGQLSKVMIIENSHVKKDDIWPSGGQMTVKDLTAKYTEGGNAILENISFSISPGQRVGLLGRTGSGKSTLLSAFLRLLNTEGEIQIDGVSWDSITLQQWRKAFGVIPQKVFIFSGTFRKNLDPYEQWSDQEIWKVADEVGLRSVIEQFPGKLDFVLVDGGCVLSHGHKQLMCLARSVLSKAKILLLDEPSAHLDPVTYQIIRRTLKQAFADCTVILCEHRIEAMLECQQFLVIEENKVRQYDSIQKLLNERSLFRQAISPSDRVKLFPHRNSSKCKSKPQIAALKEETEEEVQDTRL
For the compound `Cc1cc(=O)oc2c1cc(C)c1occ(C)c12` [TMA, 4,6,4′-trimethylangelicin, reference compound], the “corrective activity of TMA” value is given as “ineffective at all concentrations”.

Staying with this assay, now noted: Table 1; compound at 10 μM plus VX-809; (QRTOT − QRVX)/QRVX, HS-YFP assay.
On to `CCOC(=O)c1c(Br)c2c(n1Cc1ccc(C)cc1)-c1[nH]c(=O)c(S(C)(=O)=O)cc1CC2` [PP036, Ethyl 3-bromo-7-(metansulfonyl)-1-[(4-methylphenyl)methyl]-8-oxo-4,5,8,9-tetrahydro-1H-pyrrolo[3,2-h]quinoline-2-carboxylate], for which the “AI (%) additivity index” value stood at 23%.
On the same count and under the same terms, next, `COC(=O)c1cc2c(n1Cc1ccc(C)cc1)-c1[nH]c(=O)c(S(=O)(=O)c3ccccc3)cc1CC2` [PP019, Methyl 1-(4-methylbenzyl)-8-oxo-7-(phenylsulfonyl)-4,5,8,9-tetrahydro-1H-pyrrolo[3,2-h]quinoline-2-carboxylate]: 29%; `CCOC(=O)c1cc2c(n1C)-c1[nH]c(=O)c(S(=O)(=O)c3ccccc3)cc1CC2` [PP010]: 95%; `CCOC(=O)c1cc2c(n1Cc1ccc(I)cc1)-c1[nH]c(=O)c(S(=O)(=O)c3ccccc3)cc1CC2` [PP062, Ethyl 7-(benzenesulfonyl)-1-[(4-iodophenyl)methyl]-8-oxo-4,5,8,9-tetrahydro-1H-pyrrolo[3,2-h]quinoline-2-carboxylate]: 95%.
Consider `CCOC(=O)c1cc2c(n1Cc1ccc(C)cc1)-c1[nH]c(=O)c(S(=O)(=O)c3ccc(C)cc3)cc1CC2` [PP023, Ethyl 7-(4-methylbenzene-1-sulfonyl)-1-[(4-methylphenyl)methyl]-8-oxo-4,5,8,9-tetrahydro-1H-pyrrolo[3,2-h]quinoline-2-carboxylate], for which the “AI (%) additivity index” value amounted to 89%.
Take `CCOC(=O)c1c(Br)c2c(n1Cc1ccc(C)nc1)-c1[nH]c(=O)c(S(=O)(=O)c3ccccc3)cc1CC2` [PP067, Ethyl 7-(benzenesulfonyl)-3-bromo-1-[(6-methylpyridin-3-yl)methyl]-8-oxo-4,5,8,9-tetrahydro-1H-pyrrolo[3,2-h]quinoline-2-carboxylate]: the “AI (%) additivity index” value worked out at 81%.
On the same count and under the same terms, the value for `Cc1cccc(Cn2c(C(N)=O)cc3c2-c2[nH]c(=O)c(S(=O)(=O)c4ccccc4)cc2CC3)c1` [PP093, 7-(Benzenesulfonyl)-1-[(3-methylphenyl)methyl]-8-oxo-4,5,8,9-tetrahydro-1H-pyrrolo[3,2-h]quinoline-2-carboxamide] was 25%.
In the case of `Cc1cccc(Cn2c(C(=O)NC3CC3)cc3c2-c2[nH]c(=O)c(S(=O)(=O)c4ccccc4)cc2CC3)c1` [PP092, 7-(Benzenesulfonyl)-N-cyclopropyl-1-[(3-methylphenyl)methyl]-8-oxo-4,5,8,9-tetrahydro-1H-pyrrolo[3,2-h]quinoline-2-carboxamide], the “AI (%) additivity index” value worked out at 52%.
For the compound `O=C(NC1CC1)c1c(Br)c2c(n1Cc1ccc(Br)cc1)-c1[nH]c(=O)c(S(=O)(=O)c3ccccc3)cc1CC2` [PP099, 7-(Benzenesulfonyl)-3-bromo-1-[(4-bromophenyl)methyl]-N-cyclopropyl-8-oxo-4,5,8,9-tetrahydro-1H-pyrrolo[3,2-h]quinoline-2-carboxamide], the “AI (%) additivity index” value was 82%.
`Cc1ccc(Cn2c(C(N)=O)c(Br)c3c2-c2[nH]c(=O)c(S(=O)(=O)c4ccccc4)cc2CC3)cc1` [PP089, 7-(Benzenesulfonyl)-3-bromo-1-[(4-methylphenyl)methyl]-8-oxo-4,5,8,9-tetrahydro-1H-pyrrolo[3,2-h]quinoline-2-carboxamide]: the “AI (%) additivity index” value turned out to be 11%.
Take `Cc1ccc(Cn2c(C(=O)O)cc3c2-c2[nH]c(=O)c(S(=O)(=O)c4ccccc4)cc2CC3)cc1` [PP078, 7-(Benzenesulfonyl)-1-[(4-methylphenyl)methyl]-8-oxo-4,5,8,9-tetrahydro-1H-pyrrolo[3,2-h]quinoline-2-carboxylic acid]: the “AI (%) additivity index” value is on record as 37%.
Still for that read-out and setting: the value for `CCOC(=O)c1c(Br)c2c(n1Cc1ccc(C)cc1)-c1[nH]c(=O)c(S(=O)(=O)c3ccc(C)cc3)cc1CC2` [PP035, Ethyl 3-bromo-7-(4-methylbenzene-1-sulfonyl)-1-[(4-methylphenyl)methyl]-8-oxo-4,5,8,9-tetrahydro-1H-pyrrolo[3,2-h]quinoline-2-carboxylate] was 56%; that for `Cc1ccc(Cn2c(C(=O)O)c(Br)c3c2-c2[nH]c(=O)c(S(=O)(=O)c4ccccc4)cc2CC3)cc1` [PP079, 7-(Benzenesulfonyl)-3-bromo-1-[(4-methylphenyl)methyl]-8-oxo-4,5,8,9-tetrahydro-1H-pyrrolo[3,2-h]quinoline-2-carboxylic acid] was 38%.
Still for that read-out and setting: next, `CCOC(=O)c1c(Cl)c2c(n1Cc1ccc(C)cc1)-c1[nH]c(=O)c(S(=O)(=O)c3ccccc3)cc1CC2` [PP076, Ethyl 7-(benzenesulfonyl)-3-chloro-1-[(4-methylphenyl)methyl]-8-oxo-4,5,8,9-tetrahydro-1H-pyrrolo[3,2-h]quinoline-2-carboxylate]: 244%.

Still in this assay, the particulars now being: Table 2; compound at 10 μM plus VX-809; (QRTOT − QRVX)/QRVX.
Regarding `CCOC(=O)c1cc2c(n1Cc1ccc(C)cc1)-c1[nH]c(=O)c(S(=O)(=O)c3ccccc3)cc1CCC2` [PP048, Ethyl 8-(benzenesulfonyl)-1-[(4-methylphenyl)methyl]-9-oxo-1,4,5,6,9,10-hexahydropyrrolo[3′,2′:6,7]cyclohepta[1,2-b]pyridine-2-carboxylate], the AI additivity index came out at 22%.

Still in this assay, the particulars now being: Table 3; compound at 10 μM plus VX-809; (QRTOT-QRVX)/QRVX.
`CCOC(=O)c1cc2c(n1Cc1ccc(C)c(C)c1)-c1nc(NS(=O)(=O)c3ccccc3)ncc1CC2` [SVQ13, Ethyl 2-[(benzenesulfonyl)amino]-9-[(3,4-dimethylphenyl)methyl]-6,9-dihydro-5H-pyrrolo[3,2-h]quinazoline-8-carboxylate]: the AI additivity index came to 86%.
On the same count and under the same terms, the value for `CCOC(=O)c1c(Br)c2c(n1Cc1ccc(C)cc1)-c1nc(NS(=O)(=O)c3ccccc3)ncc1CC2` [SVQ10, Ethyl 2-[(benzenesulfonyl)amino]-7-bromo-9-[(4-methylphenyl)methyl]-6,9-dihydro-5H-pyrrolo[3,2-h]quinazoline-8-carboxylate] was 134%; that for `CCOC(=O)c1c(Br)c2c(n1Cc1cccc(C)c1)-c1nc(NS(=O)(=O)c3ccccc3)ncc1CC2` [SVQ12, Ethyl 2-[(benzenesulfonyl)amino]-7-bromo-9-[(3-methylphenyl)methyl]-6,9-dihydro-5H-pyrrolo[3,2-h]quinazoline-8-carboxylate] was 152%.

Still in this assay, the particulars now being: Table 4; compound at 10 μM plus VX-809; (QRTOT − QRVX)/QRVX.
In the case of `CCOC(=O)c1c(Br)cc2n1CCc1cc(S(=O)(=O)c3ccccc3)c(=O)[nH]c1-2` [QZN2, Ethyl 3-(benzenesulfonyl)-9-bromo-2-oxo-1,2,5,6-tetrahydropyrrolo[1,2-h][1,7]naphthyridine-8-carboxylate], the “AI (%) additivity index” value is recorded as 19%.
With `CCOC(=O)c1c(Br)cc2n1CCCc1cc(S(=O)(=O)c3ccccc3)c(=O)[nH]c1-2` [QZN6, Ethyl 3-(benzenesulfonyl)-10-bromo-2-oxo-1,5,6,7-tetrahydro-2H-pyrido[2,3-c]pyrrolo[1,2-a]azepine-9-carboxylate], the “AI (%) additivity index” value is 136%.

The assay is the same for the next values; noted with them: Table 5; compound at 10 μM plus VX-809; (QRTOT-QRVX)/QRVX.
`CC(C)OC(=O)c1ccc2n1CCc1cnc(NC3CCCC3)nc1-2` [QZQ20, Propan-2-yl 2-(cyclopentylamino)-5,6-dihydropyrimido[5,4-g]indolizine-8-carboxylate]: the “AI (%) additivity index” value stood at 5%.

The same assay, now with this note: relative to the analogue.
As for `CCOC(=O)c1cc2c(n1C)-c1[nH]c(=O)c(S(=O)(=O)c3ccccc3)cc1CC2` [PP010], the “structure-activity comparison of corrector potency/activity” value is reported as “causes a reduction in activity”.

These data come from patent US12410164B2, “Heterocyclic compounds and medical use thereof” (FONDAZIONE TELETHON, priority 2018, dated 2025).
